Data as given in patent US7488825B2 (Kabushiki Kaisha Yakult Honsha, priority 2003, dated 2009).
Structures can show the parent of a compound that is named as a salt.

Legend:
[1] = Solubility measurement in preparation solution (water solubility); type: physicochemical; details: hydrochloride; for water solubility: pH3.5; for dissolution amount: preparation solution (D-sorbitol, lactic acid, pH about 3.5), shaken at 22° C. for 30 minutes
Protocol: About 0.5 g of b- or c-type crystals were weighed out, suspended in a preparation solution, and shaken at 22° C. for 30 minutes (130 r/min). The mixture was filtered by a membrane filter (0.45 μm). To 1 ml of the filtrate, the preparation solution was added up to 200 mL. 10 μl was aliquoted and analyzed by liquid chromatography. The dissolution amount was obtained on the basis of a calibration curve previously prepared.
Note that the preparation solution used herein was prepared by dissolving 45 g of D-sorbitol in an appropriate amount of distilled water for injection, adding 900 mg of lactic acid, adjusting pH of the solution at about 3.5, and adding distilled water for injection up to 1000 mL.

[2] = Change of dissolution state over time (30 mg/mL in preparation solution); type: physicochemical; details: shaken for several minutes

## CCc1c2c(nc3ccc(OC(=O)N4CCC(N5CCCCC5)CC4)cc13)-c1cc3c(c(=O)n1C2)COC(=O)[C@]3(O)CC [b-type crystals, irinotecan hydrochloride]
[1]
  water solubility: 11.4 mg/mL
  dissolution amount: 11.4 mg/mL
[2]
  temperature needed to dissolve: about 70 °C

## CCc1c2c(nc3ccc(OC(=O)N4CCC(N5CCCCC5)CC4)cc13)-c1cc3c(c(=O)n1C2)COC(=O)[C@]3(O)CC [c-type crystals, irinotecan hydrochloride]
[1]
  water solubility: ≥ 100 mg/mL

## CCc1c2c(nc3ccc(OC(=O)N4CCC(N5CCCCC5)CC4)cc13)-c1cc3c(c(=O)n1C2)COC(=O)[C@]3(O)CC [No. 3, irinotecan hydrochloride]
[1]
  dissolution amount: ≥ 100 mg/mL
